Results on three compounds are retold here after ChEMBL document CHEMBL1150233, “Circumdatin G, a new alkaloid from the fungus Aspergillus ochraceus” (J Nat Prod, 2001).

Structures are written as SMILES.

The assay in a line: Inhibition of HCV protease. On the set-up: species or system Hepacivirus hominis.
Regarding `CCCC(=O)c1cc2c(c(O)c1C)C(=O)C(=O)c1c(O)cccc1-2`, the midpoint of inhibition, the IC50, lay at 7.7 µM.
`CC1Cc2cccc(O)c2C(=O)O1` (stereo not drawn) [MELLEIN] gave an IC50 of 35 µM.
Under `O=C1C=C2C(=CCOC2O)O1` (stereo not drawn) [PATULIN] stands 24.7 µM.
